According to patent publication US20160339094A1, “BACTERIAL INFLUENCE OF HOST FEEDING AND EMOTION VIA CLPB PROTEIN MIMICRY OF A-MSH” (priority 2013, published 2016):

What was measured:
C57B16 mice [1] = experiment: ClpB immunization in mice: plasma ClpB-, α-MSH- and ACTH-reactive autoantibody ELISA; assay type: in vivo
Protocol: Two month-old male C57B16 mice (Janvier Labs L'Arbresle, France) were acclimated to the animal facility for with 12 h light-dark cycle, lights on at 7:00 a.m. and were kept in standard mouse holding cages (n=8) in each. […] During acclimatization mice were distributed between four cages to obtain the similar mean body weight per mouse per cage. After one week of acclimatization, mice from each cage were assigned to one of four study group and received following treatments: i) Group 1, ClpB immunization (n=8): ClpB protein (Delphi Genetics) 50 μg/mouse in 200 μl of 1:1 vol. of PBS with Complete Freund's Adjuvant (CFA, Sigma), intraperitoneally (I.P.); ii) Group 2, adjuvant injection controls (n=8): 200 μl of CFA in PBS (1:1 vol., I.P.); iii) Group 3, PBS injection controls (n=8): 200 μl of PBS (I.P.) and iiii) Group 4, Intact controls (n=8): received no injections, and then all mice were returned to their holding cages. Fifteen days later, mice were given a boost immunization and the following treatments: i) Group 1 (n=8), ClpB protein (Delphi Genetics) 50 μg/mouse in 200 μl of 1:1 vol. of PBS with Incomplete Freund's Adjuvant (IFA, Sigma) I.P.; ii) Group 2 (n=8): 200 ═l of IFA in PBS (1:1 vol., I.P.); iii) Group 3, (n=8): 200 ═l of PBS (I.P.) and iiii) Group 4, (n=8): received no injections.
Two hours after the O-maze test, mice were killed by decapitation in a guillotine and trunk blood was collected into EDTA-containing tubes. Plasma was separated by centrifugation at 3,500 r.p.m. (1.4 g) for 10 min at 4° C. and stored at −80° C. before assay.
Plates were washed (5 min×3) in phosphate-buffered saline (PBS) with 0.05% Tween 200, pH 7.4, and then incubated overnight at 4° C. with 100 μl of mouse or rat plasma diluted 1:200 in PBS to determine free autoAbs levels or diluted 1:200 in dissociative 3 M NaCl, 1.5 M glycine buffer, pH 8.9 to determine total autoAbs levels. The plates were washed (3×) and incubated with 100 μl of alkaline phosphatase (AP)-conjugated goat anti-rat IgG (1:2000), anti-rat IgM (1:1000), anti-mouse IgG (1:2000), or anti-mouse IgM (1:1000) all from Jackson ImmunoResearch Laboratories, Inc. (West Grove, Pa.). Following washing (3×), 100 μl of p-nitrophenyl phosphate solution (Sigma) was added as alkaline phosphatase substrate. After 40 min of incubation at room temperature, the reaction was stopped by adding 3N NaOH. The OD was determined at 405 nm using a microplate reader Metertech 960 (Metertech Inc., Taipei, Taiwan). Blank OD values resulting from the reading of plates without addition of plasma samples were subtracted from the sample OD values. Each determination was done in duplicate. The variation between duplicate values was less than 5%.

C57B16 mice [2] = experiment: Locomotor activity and anxiety tests (open field, elevated O-maze) in immunized mice; assay type: in vivo
Protocol: After the feeding study, mice were placed in individual mouse holding cages with food and water available ad libitum and were analyzed for locomotor activity and anxiety in O-maze tests performed during two consecutive days. Two hours after the O-maze test, mice were killed by decapitation in a guillotine and trunk blood was collected into EDTA-containing tubes. Plasma was separated by centrifugation at 3,500 r.p.m. ([…]) for 10 min at 4° C. and stored at −80° C. before assay.
After feeding study in the BioDAQ cages, mice were analyzed for locomotor activity using a Versamax Animal Activity Monitor (AccuScan Instruments, Inc., Columbus, Ohio). Next day after the locomotor activity test all mice were tested for their anxiety in an elevated-O-maze. The elevated-O-maze is a variation of more commonly used elevated-plus-maze pharmacologically validated for anxiety testing in rodents (Crawley, J. N. and Bailey, K. R., Methods of behavior analysis in neuroscience, 77-101 (CRC Press, 2009)). The advantage of the O-maze is that it lacks the ambiguous central square of the traditional plus-maze. The O-maze (Med Associate, Inc., St. Albans, Vt.) consisted of a circular infrared platform (outer diameter 120 cm) elevated 80 cm above the floor, featuring two open and two closed segments made of grey plastic. The closed segments were enclosed by walls extending 20 cm above the surface of the maze and covered with a black infrared Plexiglas lid. Each test started by placing the mouse into one of the two closed segments. The test lasted 5 min and was recorded using a video-camera placed above the O-maze and the EthoVision video tracking software (Noldus IT, Wageningen, The Netherlands). Measurements of distance and time spent in the open and closed segments were analyzed. Between each mouse tests, the O-maze was cleaned with a 30% alcohol.

ClpB = ClpB (Escherichia coli, UniProt P63284); settings: plasma extracted IgG of ClpB immunized mice vs other groups; SPR
Protocol: (§1) Extraction of plasma globulins was done by plasma acidification and separation on C-18 SEP column (Phoenix Pharmaceuticals, Burlingame, Calif.) according to the manufacturer instructions. In detail, 500 μl of mouse or rat plasma was mixed with 500 μl of buffer A (1% trifluoroacetic acid TFA in water). The column was activated in 1 ml of buffer B (60% acetonitrile in 1% TFA) by 3 min centrifugation with 700 rpm and rinsed 3 times with 3 ml of buffer A. Diluted plasma (1:1 in buffer A) was added to the column and the effluent (1 ml) was saved (frozen at −20° C.) for further purification of IgG. Total IgG were purified from the effluents of rat plasma samples using the Melon Gel Kit (Thermo Fisher Scientific, Rockford, Ill.) according to the manufacturer instructions. In brief, plasma effluents diluted 1:4 in kit's purification buffer was added on washed melon gel deposited in a column. Column was spinned 1 min at 6,000 r.p.m. and the IgG containing effluent was saved and frozen at −20° C. before lyophilization. Lyophilized IgG were reconstituted in the HBS-EP buffer (GE Healthcare, Piscataway, N.J.).
(§2) For the affinity kinetic analysis, a multi-cycle method was run with five serial dilutions of each IgG sample: 3360, 1680, 840, 420 and 210 (nmol) including a duplicate of 840 nmol and a blank sample (HBS-EP buffer only).

α-MSH = α-MSH (Homo sapiens, UniProt P01189); settings: IgG of ClpB immunized mice vs controls; SPR
Protocol: as §1, §2

C57B16 mice [3] = experiment: ClpB immunization in mice: body weight, food intake and feeding pattern (BioDAQ cages); assay type: in vivo
Protocol: Animal care and experimentation were in accordance with guidelines established by the National Institutes of Health, USA and complied with both French and European Community regulations (Official Journal of the European Community L 358, 18 Dec. 1986). Two month-old male C57B16 mice (Janvier Labs L'Arbresle, France) were acclimated to the animal facility for with 12 h light-dark cycle, lights on at 7:00 a.m. and were kept in standard mouse holding cages (n=8) in each. Mice were fed ad libitum with standard pelleted rodent chow (RM1 diet, SDS, UK) with drinking water always available and were manipulated daily by gentle holding and measuring body weight. During acclimatization mice were distributed between four cages to obtain the similar mean body weight per mouse per cage. After one week of acclimatization, mice from each cage were assigned to one of four study group and received following treatments: i) Group 1, ClpB immunization (n=8): ClpB protein (Delphi Genetics) 50 μg/mouse in 200 μl of 1:1 vol. of PBS with Complete Freund's Adjuvant (CFA, Sigma), intraperitoneally (I.P.); ii) Group 2, adjuvant injection controls (n=8): 200 μl of CFA in PBS (1:1 vol., I.P.); iii) Group 3, PBS injection controls (n=8): 200 μl of PBS (I.P.) and iiii) Group 4, Intact controls (n=8): received no injections, and then all mice were returned to their holding cages. Fifteen days later, mice were given a boost immunization and the following treatments: i) Group 1 (n=8), ClpB protein (Delphi Genetics) 50 μg/mouse in 200 μl of 1:1 vol. of PBS with Incomplete Freund's Adjuvant (IFA, Sigma) I.P.; ii) Group 2 (n=8): 200 ═l of IFA in PBS (1:1 vol., I.P.); iii) Group 3, (n=8): 200 ═l of PBS (I.P.) and iiii) Group 4, (n=8): received no injections.
Next day after the boost, mice were placed individually in the BioDAQ mouse cages (Research Diets, Inc., New Brunswick, N.J.) each equipped with an automatic feeding monitor. Food (SERLAB, Montataire France) and drinking water were available ad libitum and body weight was measured daily. After three days of acclimation to the BioDAQ cages, mice received the following treatments: Groups 1, 2 and 3 (each n=8) i.e. mice which have been immunized with ClpB; injected with adjuvants and with PBS, respectively, […] PBS (I.P.) at 10 a.m. The control mice (n=8) received PBS only (I.P.). Feeding data was continuously monitored and analysed using the BioDAQ data viewer 2.3.07 (Research Diets). For the meal pattern analysis, the inter-meal interval was set at 300 sec.

[4] = tested on: polyclonal rabbit anti-α-MSH antisera
Protocol: Following 2D-PAGE, E. coli cytoplasmic proteins were transferred onto Hybond-ECL PVDF membrane (GE Healthcare) by using a dry transfer method (Trans Blot Cell, Biorad, USA) and a constant current of 0.8 mA/cm^2 of the membrane size for 2 h. After transfer, membranes were blocked with 5% (wt:v) milk (Regilait, France) in phosphate buffered saline (PBS; 10 mmol/L […], pH 8; 150 mmol/L NaCl) plus 0.05% (v:v) Tween 20.
The recombinant ClpB protein was customly produced by Delphi Genetics SA, (Gosselies, Belgium) in bacterial cultures by the ClpB cDNA synthesis and cloning into an expression vector.

[5] = day 22, single injection of α-MSH 100 μg/kg body weight, I.P., non-immunized vs ClpB-immunized vs controls

ClpB, sequence (P63284 whole entry): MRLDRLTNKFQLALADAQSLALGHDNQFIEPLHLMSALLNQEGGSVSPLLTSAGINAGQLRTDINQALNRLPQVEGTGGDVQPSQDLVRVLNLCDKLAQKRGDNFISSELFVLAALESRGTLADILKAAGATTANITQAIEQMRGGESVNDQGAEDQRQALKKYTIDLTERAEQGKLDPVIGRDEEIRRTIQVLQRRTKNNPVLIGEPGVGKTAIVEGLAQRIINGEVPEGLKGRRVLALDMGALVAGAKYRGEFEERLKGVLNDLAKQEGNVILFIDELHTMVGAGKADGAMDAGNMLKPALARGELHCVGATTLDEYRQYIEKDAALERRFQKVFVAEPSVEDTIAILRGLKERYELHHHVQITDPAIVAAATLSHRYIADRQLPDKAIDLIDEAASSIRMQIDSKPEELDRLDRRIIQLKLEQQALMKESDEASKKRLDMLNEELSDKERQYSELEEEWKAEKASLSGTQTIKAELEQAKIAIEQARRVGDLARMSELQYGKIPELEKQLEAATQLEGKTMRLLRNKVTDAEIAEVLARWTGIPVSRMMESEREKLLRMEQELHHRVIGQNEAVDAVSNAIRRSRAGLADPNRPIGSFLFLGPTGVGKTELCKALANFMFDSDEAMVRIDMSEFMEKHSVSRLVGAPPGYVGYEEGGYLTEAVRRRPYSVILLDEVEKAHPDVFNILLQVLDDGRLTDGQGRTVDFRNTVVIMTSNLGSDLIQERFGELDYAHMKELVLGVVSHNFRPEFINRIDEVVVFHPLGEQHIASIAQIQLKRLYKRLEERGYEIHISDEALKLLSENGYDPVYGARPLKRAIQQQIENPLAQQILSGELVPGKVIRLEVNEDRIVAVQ

For “ClpB: recombinant 857 amino acid chaperone protein ClpB of E. coli K12 (SEQ ID NO: 1), injected I.P. with Freund's adjuvant for immunization”, the “plasma levels of α-MSH-reactive IgG” value (C57B16 mice [1]; ClpB immunized mice) was “Increased plasma levels”, the “plasma levels of ClpB IgG” value (C57B16 mice [1]; ClpB immunized mice vs other groups (adjuvant, PBS, controls)) was “higher plasma levels” and the “plasma ACTH-reactive IgG” value (C57B16 mice [1]; among the groups) was “No significant differences”. For the same substance, the “plasma levels of α-MSH IgM autoAbs” value (C57B16 mice [1]; between the groups) was “did not significantly differ”, the “parameters in the O-maze open arms” value (C57B16 mice [2]; ClpB group) was “did not significantly change” and the “time spent in the closed arms of the O-maze” value (C57B16 mice [2]; ClpB-immunized mice vs all other groups) was “less time”. For the same substance, the “distance moved in the closed arms of the O-maze” value (C57B16 mice [2]; ClpB-immunized mice vs controls) was “shorter distance”, the “time spent in the open vs. border areas” value (C57B16 mice [2]; open field, among the groups) was “did not significantly differ” and the total locomotor activity (C57B16 mice [2]; open field, among the groups) was “did not significantly differ”. For the same substance, the “affinity of anti-ClpB IgG for ClpB” value (ClpB) was “lower affinities”, the “affinity of IgG for α-MSH” value (α-MSH) was “lower affinities for α-MSH” and the meal number (C57B16 mice [3]; BioDAQ) was “did not change”. For the same substance, the meal size (C57B16 mice [3]; BioDAQ, last 10 days) was “increased meal size”, the “higher mean daily food intake as compared to other groups” value (C57B16 mice [3]; BioDAQ, last 10 days of the experiment) was 13% and the “body weight for few days after injections” value (C57B16 mice [3]; ClpB and CFA, I.P., expected inflammatory response to immunization) was “lower body weight”. The “higher body weight vs. controls at the end of the experiment” value (C57B16 mice [3]; ClpB immunized mice, 32 days study) was 5%, the “24 h food intake following α-MSH injection” value (C57B16 mice [3]; [5]) was “did not differ from controls” and the “body weight 24 h following α-MSH injection” value (C57B16 mice [3]; [5]) was “did not differ from controls”. For the same substance, the “Western blot detection by anti-α-MSH antiserum after trypsin digestion” value ([4]; ClpB digested by trypsin) was “No band was detected” and the “Western blot detection by anti-α-MSH antiserum” value ([4]; intact recombinant ClpB) was “single 96 kDa band”.
